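Exposure lasted 48 hours, with cells grown in 96-well plates and compounds tested at five concentrations. The concentration for 50% growth inhibition is given as GI50.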 Activity calls are given as the source filed them. No stated cut-off is given here; in the data, active = GI50 up to about 1.1 µM and inactive = higher.
Columns and labels:
Assay in all cases: inhibition of tumour cell growth, NCI panel, 48 h
SW-620 = system: SW-620
UACC-257 = system: UACC-257
CCRF-CEM = system: CCRF-CEM
HOP-92 = system: HOP-92
A498 = system: A498
SN12C = system: SN12C
CAKI-1 = system: CAKI-1
SF-268 = system: SF-268
NCI-H522 = system: NCI-H522
SK-MEL-5 = system: SK-MEL-5
UO-31 = system: UO-31
Malme-3M = system: Malme-3M
A549 = system: A549
MOLT-4 = system: MOLT-4
HL-60 = system: HL-60
SK-MEL-28 = system: SK-MEL-28
SNB-75 = system: SNB-75
OVCAR-3 = system: OVCAR-3
SF-295 = system: SF-295
M14 = system: M14

Structure (SMILES)	GI50 (SW-620)	GI50 (UACC-257)	GI50 (CCRF-CEM)	GI50 (HOP-92)	GI50 (A498)	GI50 (SN12C)	GI50 (CAKI-1)	GI50 (SF-268)	GI50 (NCI-H522)	GI50 (SK-MEL-5)	GI50 (UO-31)	GI50 (Malme-3M)	GI50 (A549)	GI50 (MOLT-4)	GI50 (HL-60)	GI50 (SK-MEL-28)	GI50 (SNB-75)	GI50 (OVCAR-3)	GI50 (SF-295)	GI50 (M14)
Cc1c2ccncc2cc2c1[nH]c1ccccc12	2.42 µM (inactive)	5.55 µM (inactive)	3.78 µM (inactive)	5.37 µM (inactive)	0.804 µM (active)	1.58 µM (inactive)	3.88 µM (inactive)	8.22 µM (inactive)	3.92 µM (inactive)	3.97 µM (inactive)	3.45 µM (inactive)	7.05 µM (inactive)	3.22 µM (inactive)	1.98 µM (inactive)	3.41 µM (inactive)	3.85 µM (inactive)	5.26 µM (inactive)	5.6 µM (inactive)	5.02 µM (inactive)	
N#CC1(CCCI)CCCC1	10.7 µM (inactive)	22.6 µM (inactive)	11.5 µM (inactive)	15.6 µM (inactive)	35.9 µM (inactive)	12.3 µM (inactive)		12.6 µM (inactive)	3.24 µM (inactive)	12.9 µM (inactive)	27.9 µM (inactive)	18.8 µM (inactive)	20.6 µM (inactive)	13.8 µM (inactive)	6.1 µM (inactive)	16.5 µM (inactive)	1.53 µM (inactive)	16 µM (inactive)	29.4 µM (inactive)	5.83 µM (inactive)
COC1OC(=O)[C@H]2O[N+]([O-])=C(C)[C@@H]12 (some centres not stated)	> 100 µM (inactive)	> 100 µM (inactive)	> 100 µM (inactive)	> 100 µM (inactive)	> 100 µM (inactive)	> 100 µM (inactive)	> 100 µM (inactive)	> 100 µM (inactive)	> 100 µM (inactive)	> 100 µM (inactive)	> 100 µM (inactive)	> 100 µM (inactive)	> 100 µM (inactive)	> 100 µM (inactive)	> 100 µM (inactive)	> 100 µM (inactive)	> 100 µM (inactive)	> 100 µM (inactive)	> 100 µM (inactive)	
COc1ccc(NCC(=O)Nn2c(-c3ccccc3)nc3ccccc3c2=O)cc1	28.2 µM (inactive)	52.2 µM (inactive)	24.2 µM (inactive)	25.4 µM (inactive)	23.3 µM (inactive)	36.6 µM (inactive)		36.2 µM (inactive)	> 10 µM (inactive)	14.8 µM (inactive)	> 100 µM (inactive)	30 µM (inactive)	53.7 µM (inactive)	18.4 µM (inactive)	42.3 µM (inactive)	74.5 µM (inactive)	44.4 µM (inactive)	60.7 µM (inactive)	> 100 µM (inactive)	41.3 µM (inactive)
CCOc1cc(/C=N\O)cc(/C=N/O)c1O	34.6 µM (inactive)	47.2 µM (inactive)	35.3 µM (inactive)	23.8 µM (inactive)	18 µM (inactive)	51.6 µM (inactive)	21.9 µM (inactive)	22.6 µM (inactive)		17.7 µM (inactive)	1.2 µM (inactive)	37.2 µM (inactive)	29.5 µM (inactive)	29.1 µM (inactive)	18.1 µM (inactive)	22.8 µM (inactive)	23.1 µM (inactive)	31.1 µM (inactive)	38.3 µM (inactive)	44 µM (inactive)
CCN(CC)CCCC(C)Nc1cc(-c2ccccc2)nc2cc(OC)ccc12 (configuration not stated)		17.4 µM (inactive)	1.3 µM (inactive)	2.23 µM (inactive)	5.61 µM (inactive)			12.8 µM (inactive)	6.44 µM (inactive)		2.54 µM (inactive)	10.4 µM (inactive)		2.14 µM (inactive)	2.55 µM (inactive)	6.22 µM (inactive)	11.8 µM (inactive)	12.2 µM (inactive)	8.79 µM (inactive)	1.84 µM (inactive)
COc1ccc(CCCC(=O)O)c(C)c1	59.2 µM (inactive)	73.5 µM (inactive)	17.2 µM (inactive)	27.4 µM (inactive)	14.3 µM (inactive)	32 µM (inactive)	17.8 µM (inactive)	27.4 µM (inactive)	36.8 µM (inactive)	40.3 µM (inactive)	> 100 µM (inactive)	27.2 µM (inactive)	58.6 µM (inactive)	15.7 µM (inactive)	37.5 µM (inactive)	91.4 µM (inactive)		30.3 µM (inactive)	38.8 µM (inactive)	92.9 µM (inactive)
OCC1OC(n2ccc3cnccc32)CC1O (configuration not stated)	> 100 µM (inactive)	> 100 µM (inactive)	> 100 µM (inactive)	> 100 µM (inactive)	> 100 µM (inactive)	> 100 µM (inactive)	> 100 µM (inactive)		> 100 µM (inactive)	> 100 µM (inactive)	> 100 µM (inactive)	> 100 µM (inactive)	> 100 µM (inactive)	> 100 µM (inactive)	> 100 µM (inactive)	> 100 µM (inactive)	> 100 µM (inactive)	> 100 µM (inactive)	> 100 µM (inactive)	> 100 µM (inactive)
O=C(NC(COC(=O)C(Cc1ccccc1)NC(=O)c1ccccc1)Cc1ccccc1)c1ccccc1 (configuration not stated)	> 50 µM (inactive)	> 50 µM (inactive)		> 50 µM (inactive)	> 50 µM (inactive)			> 50 µM (inactive)	> 50 µM (inactive)		> 50 µM (inactive)	> 50 µM (inactive)	> 50 µM (inactive)	> 50 µM (inactive)	> 50 µM (inactive)	> 50 µM (inactive)	> 50 µM (inactive)	> 50 µM (inactive)	32.7 µM (inactive)	> 50 µM (inactive)
COc1ccc(C2COc3cc(O)c(O)cc3C2)cc1 (configuration not stated)	9.06 µM (inactive)	27.4 µM (inactive)	2.86 µM (inactive)	11.6 µM (inactive)	9.84 µM (inactive)	30.1 µM (inactive)	13.7 µM (inactive)	14.8 µM (inactive)	4.84 µM (inactive)	24.4 µM (inactive)	56.2 µM (inactive)	15.3 µM (inactive)	48.8 µM (inactive)	6.58 µM (inactive)	1.58 µM (inactive)	10.7 µM (inactive)	43.8 µM (inactive)	11.4 µM (inactive)	37.6 µM (inactive)	
COc1cc(C(=O)C/C(CCC(=O)Nc2ccc(Cl)cc2Cl)=N/NC(=O)C(=O)NN)ccc1O	> 100 µM (inactive)	> 100 µM (inactive)	> 100 µM (inactive)	> 100 µM (inactive)	> 100 µM (inactive)	> 100 µM (inactive)	46.2 µM (inactive)	> 100 µM (inactive)	> 100 µM (inactive)	> 100 µM (inactive)	> 100 µM (inactive)	> 100 µM (inactive)	> 100 µM (inactive)		> 100 µM (inactive)	> 100 µM (inactive)	> 100 µM (inactive)	> 100 µM (inactive)	> 100 µM (inactive)	> 100 µM (inactive)
O=c1c(-c2ccccc2)c(SCCCN2CCCCC2)n(-c2ccccc2)c(=S)n1-c1ccccc1	19.6 µM (inactive)	16.8 µM (inactive)	15.7 µM (inactive)	12.1 µM (inactive)	15.1 µM (inactive)		19.5 µM (inactive)		22.4 µM (inactive)	16 µM (inactive)		21.5 µM (inactive)		18.2 µM (inactive)	16.6 µM (inactive)	16.9 µM (inactive)	15.3 µM (inactive)	18.2 µM (inactive)	17.1 µM (inactive)	
CN1C(=O)CN=C(c2ccccc2F)c2cc(N=C=S)ccc21	53.5 µM (inactive)	43.5 µM (inactive)	19.2 µM (inactive)	23.7 µM (inactive)	26.8 µM (inactive)	96.2 µM (inactive)	11.3 µM (inactive)	67 µM (inactive)	0.665 µM (active)		17.1 µM (inactive)	> 100 µM (inactive)	33.9 µM (inactive)		34.2 µM (inactive)		33.5 µM (inactive)	52 µM (inactive)	52.8 µM (inactive)	52.1 µM (inactive)
CCOC(=O)COc1cccc2occc(=O)c12	> 100 µM (inactive)	> 100 µM (inactive)	> 100 µM (inactive)	> 100 µM (inactive)	> 100 µM (inactive)	> 100 µM (inactive)	> 100 µM (inactive)	> 100 µM (inactive)	> 100 µM (inactive)	> 100 µM (inactive)	> 100 µM (inactive)	> 100 µM (inactive)	> 100 µM (inactive)	> 100 µM (inactive)	> 100 µM (inactive)	> 100 µM (inactive)		> 100 µM (inactive)	> 100 µM (inactive)	> 100 µM (inactive)
NC1CCCCC1.O=P(O)(O)C(CSc1ccccc1)P(=O)(O)O	> 100 µM (inactive)	> 100 µM (inactive)	> 100 µM (inactive)	> 100 µM (inactive)	> 100 µM (inactive)	> 100 µM (inactive)	> 100 µM (inactive)	> 100 µM (inactive)	> 100 µM (inactive)	> 100 µM (inactive)	> 100 µM (inactive)	> 100 µM (inactive)	> 100 µM (inactive)	> 100 µM (inactive)	> 100 µM (inactive)	> 100 µM (inactive)	> 100 µM (inactive)	47.9 µM (inactive)	> 100 µM (inactive)	

— ChEMBL document CHEMBL1201862, “PubChem BioAssay data set” (2004)
